Measured values taken from publication PMC8472597, “Neurosteroids: Structure-Uptake Relationships and Computational Modeling of Organic Anion Transporting Polypeptides (OATP)1A2” (Molecules, 2021).
“And” between values parts separate entries of the source, which are not always exact repeats. Identical values can stand only once. Like-named read-outs stand apart in the source and are kept apart here.

What was measured:
MCF-7 cells [1] = assay: Concentration-dependent cellular uptake of neurosteroids into MCF-7 cells, Michaelis-Menten / Eadie-Hofstee analysis; format: cell-based, human; details: 5–200 µM; for Transport Mechanism Type 1 Vmax / Km / Transport Mechanism Type 2 Vmax: 30 min, 37 °C, Eadie-Hofstee plot analysis
Method: MCF-7 human breast adenocarcinoma cells (HTB-22; RRID: CVCL_0031) were purchased from the American Type Culture Collection (ATCC, Manassas, VA, USA). The cells were cultured in standard conditions (37 °C, 5% CO2) using Dulbecco’s modified Eagle medium (DMEM) supplemented with L-glutamine (2 mM), heat-inactivated fetal bovine serum (10%), penicillin (50 U/mL), and streptomycin (50 μg/mL). Once the cells reached 80% confluence in culture bottles (75 cm^2), the cells were washed twice with DPBS solution and harvested by trypsinization. All the following experiments were carried out with passage number 9–22.
Concentrations of neurosteroids (1–11) were determined by HPLC.
5.03 software (GraphPad Software, San Diego, CA, USA).

[2] = tested on: efflux transporters (P-gp, BCRP, MRPs); assay: Cellular uptake into MCF-7 cells in the presence of efflux inhibitors (elacridar, MK-571); details: 25 µM compound; for Efflux transporter substrate status: 50 µM elacridar and MK-571, pH 7.4, MCF-7 cells
Method: The competitive uptake of 25 µM neurosteroids (1–11) in the presence of efflux inhibitors, 50 µM elacridar (P-gp and BCRP), and 50 µM MK-571 (MRPs) at pH 7.4 was carried out as described above, and the concentrations of studied compounds were analyzed with HPLC methods (below), calculated according to the standard curve, and normalized with protein concentration measured to each 24-well plate.
Concentrations of neurosteroids (1–11) were determined by HPLC. The apparatus was comprised of an Agilent 1100 binary pump (Agilent Technologies Inc., Wilmington, DE, USA), 1100 micro vacuum degasser, HP 1050 Auto-sampler, HP 1050 variable wavelength detector, operating at 225 nm. The chromatographic separations were achieved on a Supelco Supelcosil LC-Si analytical column (4.6 mm x 250 mm, 5 ml) (Supelco Inc., Bellefonte, PA, USA) by using isocratic elution of water containing 0.1% phosphoric acid and ACN with ratio of 30:70. The retention times of the compounds were ca. 4.3–4.4 min at the flow rate of 1.0 mL/min at room temperature. […] These HPLC methods were accurate (100 ± 10% of nominal concentration), precise (RSD% <10%), and selective (no interfering peaks) over the range 0.1–2 μM.
All data analyses, including Michaelis-Menten and Eadie-Hofstee analyses, were performed using GraphPad Prism v. […] Statistical differences between groups were tested using one-way ANOVA, followed by a two-tailed Tukey’s multiple comparison test and presented as mean ± SD, with statistically significant difference denoted by * p < 0.05, ** p < 0.01, *** p < 0.001.

MCF-7 cells [3] = details: human, 30 min, 25 µM
Method: For the cellular uptake experiments, MCF-7 cells were seeded at the density of 1 × 10^5 cells/well onto 24-well plates a day before the experiments. Cellular uptake of neurosteroids (1–11) dissolved in DMSO and diluted with HBSS or MES buffer containing 5% 2-hydroxypropyl-β-cyclodextrin (HP-β-CD) was studied by incubating the cells with the pre-warmed compound solutions (250 μL) at the concentrations of 1–200 μM, at pH 7.4 (HBSS buffer), or in parallel at 5.0 (MES buffer), at 37 °C for 30 min (uptake was linear with all compounds up to 30 min). Subsequently, the cells were washed three times with ice-cold buffer and lysed with 250 μL of NaOH (0.1 M) for 60 min. The lysates were diluted with acetonitrile (ACN) with a ratio of 1:3 and centrifuged at 10,000× g for 10 min. The samples were analyzed by high-performance liquid chromatography (HPLC) methods described below. The concentrations of each compound were calculated from the standard curve and normalized to protein concentration in each 24-plate that was determined as a mean of three samples by Bio-Rad Protein Assay, based on the Bradford dye-binding method, using BSA as a standard protein and measuring the absorbance (595 nm) by multiplate reader (EnVision, Perkin Elmer, Inc., Waltham, MA, USA).
Concentrations of neurosteroids (1–11) were determined by HPLC. […]

OATP1A2 = tested on: OATP1A2; design: method as in PMID 31254566; Vmax: unit not given here; details: reference substrate; cited from earlier work
[4] = read-out: Transport Mechanism Type 1 Km
[5] = read-out: Transport Mechanism Type 2 Km

CC(=O)[C@H]1CCC2C3CC[C@@H]4C[C@H](O)CC[C@]4(C)C3CC[C@@]21C (stereo partly drawn) [Compound 1, 3α5β-Pregnanolone, reference compound]
Transport Mechanism Type 1 Vmax (MCF-7 cells [1]): 26.3 ± 4.2 pmol/mg/min
Km (MCF-7 cells [1]; [4]): 55.4 µM
Efflux transporter substrate status [2]: substrates for all studied efflux transporters

CC(=O)[C@H]1CCC2C3CC[C@@H]4C[C@H](OC(=O)[C@@H](N)CCC(=O)O)CC[C@]4(C)C3CC[C@@]21C (some centres unmarked) [Compound 2]
Uptake profile over concentration (saturation of transporter) (MCF-7 cells [1]): did not reach the saturation stage
Efflux transporter substrate status [2]: efflux phenomenon can be abolished
Cellular uptake in the presence of efflux inhibitors elacridar or MK-571 ([2]; 50 µM inhibitor, pH 7.4, MCF-7 cells): not affected

C[C@@]12CCCC1C1CC[C@@H]3C[C@H](OC(=O)[C@@H](N)CCC(=O)O)CC[C@]3(C)C1CC2 (some centres unmarked) [Compound 3]
Transport Mechanism Type 1 Vmax (MCF-7 cells [1]): 3.0 pmol/mg/min and 3.0 ± 0.4 pmol/mg/min
Transport Mechanism Type 2 Vmax (MCF-7 cells [1]): 8.2 pmol/mg/min and 8.2 ± 0.1 pmol/mg/min
Km (MCF-7 cells [1]; [4]): 7.7 µM
Km (MCF-7 cells [1]; [5]): 25.2 µM

C[C@H]1CCC2C3CC[C@@H]4C[C@H](NC(=O)CC(=O)O)CC[C@]4(C)C3CC[C@@]21C (some centres unmarked) [Compound 4]
Transport Mechanism Type 1 Vmax (MCF-7 cells [1]): 13.9 ± 6.7 pmol/mg/min
Km (MCF-7 cells [1]; [4]): ~233 µM

CC(C)(C)OC(=O)N[C@@H](CO)C(=O)N[C@@H]1CC[C@]2(C)C3CC[C@]4(C)CCCC4C3CC[C@@H]2C1 (some centres unmarked) [Compound 5]
Transport Mechanism Type 1 Vmax (MCF-7 cells [1]): 5.3 pmol/mg/min and 5.3 ± 0.4 pmol/mg/min
Transport Mechanism Type 2 Vmax (MCF-7 cells [1]): 34.7 ± 7.7 pmol/mg/min
Km (MCF-7 cells [1]; [4]): 76.4 µM
Km (MCF-7 cells [1]; [5]): ~960 µM

C[C@@]12CCCC1C1CC[C@@H]3C[C@H](NC(=O)CCC(=O)O)CC[C@]3(C)C1CC2 (some centres unmarked) [Compound 6]
Transport Mechanism Type 1 Vmax (MCF-7 cells [1]): 3.9 ± 0.5 pmol/mg/min
Transport Mechanism Type 2 Vmax (MCF-7 cells [1]): 10.2 ± 0.1 pmol/mg/min

CC(C)(C)OC(=O)N[C@@H](CC(=O)O)C(=O)N[C@@H]1CC[C@]2(C)C3CC[C@]4(C)CCCC4C3CC[C@@H]2C1 (some centres unmarked) [Compound 7]
Transport Mechanism Type 1 Vmax (MCF-7 cells [1]): 3.0 ± 0.1 pmol/mg/min

C[C@@]12CCCC1C1CC[C@@H]3C[C@H](NC(=O)[C@@H](N)CC(=O)O)CC[C@]3(C)C1CC2 (some centres unmarked) [Compound 8]
Transport Mechanism Type 1 Vmax (MCF-7 cells [1]): 8.0 ± 2.1 pmol/mg/min
Transport Mechanism Type 2 Vmax (MCF-7 cells [1]): 28.2 pmol/mg/min and 28.2 ± 0.1 pmol/mg/min
Km (MCF-7 cells [1]; [4]): 10.9 µM
Km (MCF-7 cells [1]; [5]): 42.8 µM
Cellular uptake at pH 5.5 compared to pH 7.4 (MCF-7 cells [3]): increased the uptake of all neurosteroids, except of compound 8

C[C@@]12CCCC1C1CC[C@@H]3C[C@H](NC(=O)CCCC(=O)O)CC[C@]3(C)C1CC2 (some centres unmarked) [Compound 9]
Transport Mechanism Type 1 Vmax (MCF-7 cells [1]): 5.5 ± 0.6 pmol/mg/min
Transport Mechanism Type 2 Vmax (MCF-7 cells [1]): 26.5 ± 3.0 pmol/mg/min
Km (MCF-7 cells [1]; [4]): 9.2 µM
Km (MCF-7 cells [1]; [5]): 67.8 µM

CC(C)(C)OC(=O)N[C@@H](CCC(=O)O)C(=O)N[C@@H]1CC[C@]2(C)C3CC[C@]4(C)CCCC4C3CC[C@@H]2C1 (some centres unmarked) [Compound 10]
Km (MCF-7 cells [1]; [4]): 23 µM
Km (MCF-7 cells [1]; [5]): 282 µM

C[C@@]12CCCC1C1CC[C@@H]3C[C@H](NC(=O)[C@@H](N)CCC(=O)O)CC[C@]3(C)C1CC2 (some centres unmarked) [Compound 11]
Transport Mechanism Type 1 Vmax (MCF-7 cells [1]): 17.2 ± 2.1 pmol/mg/min
Km (MCF-7 cells [1]; [4]): 24.2 µM

C[C@]12CC[C@@H]3c4ccc(OS(=O)(=O)O)cc4CC[C@H]3[C@@H]1CCC2=O [Compound E3S, Estrone-3-Sulfate]
Km (OATP1A2): 6.5 µM
Vmax (OATP1A2): 66 ± 8.5
efficacy (OATP1A2): 10.21
